According to the supplement of paper PMC10883282:

Key:
Test in all cases: relative viability vs DMSO control (72 h) (fraction); higher = more viable cells
RD-ES = system: RD-ES
How it was run: (§1)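 Sarcoma cell lines were plated in 384 wells to reach 80–90% confluence, treated after 24 h with 2.5 µl of serially diluted compound and held 72 h at 37 °C, 5% CO2. Relative viability was taken as percent growth from ATPLite readings, averaged over up to triplicate wells. The values were rescaled so that 1 marks full and 0 marks none.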

HT1080 = system: HT1080
How it was run: as §1

RD = system: RD
How it was run: as §1

VA-ES-BJ = system: VA-ES-BJ
How it was run: as §1

KHOS-NP = system: KHOS-NP
How it was run: as §1

C#Cc1cccc(Nc2ncnc3cc(OCCOC)c(OCCOC)cc23)c1 [Erlotinib]
relative viability
Conditions | HT1080 | KHOS-NP | RD | RD-ES | VA-ES-BJ
0.00017 µM | 1.09 | 1.11 | 1.08 | 0.971 | 1.088
0.00051 µM | 1.1 | 1.092 | 1.09 | 0.974 | 1.08
0.00152 µM | 1.09 | 1.11 | 1.09 | 0.975 | 1.08
0.00457 µM | 1.08 | 1.11 | 1.08 | 0.992 | 1.08
0.01372 µM | 1.09 | 1.11 | 1.07 | 0.965 | 1.06
0.04115 µM | 1.12 | 1.1 | 1.09 | 0.967 | 1.08
0.1235 µM | 1.11 | 1.095 | 1.09 | 0.998 | 1.09
0.3704 µM | 1.097 | 1.1 | 1.1 | 0.994 | 1.03
1.111 µM | 1.1 | 1.1 | 1.12 | 0.987 | 1.01
3.333 µM | 1.16 | 1.086 | 1.04 | 0.936 | 0.888
10 µM | 0.942 | 1.04 | 0.786 | 0.691 | 0.642

Cc1ccc(NC(=O)c2ccc(CN3CCN(C)CC3)cc2)cc1Nc1nccc(-c2cccnc2)n1 [Imatinib]
relative viability
Conditions | HT1080 | KHOS-NP | RD | RD-ES | VA-ES-BJ
0.00017 µM | 1.06 | 1.01 | 0.964 | 0.954 | 1.02
0.00051 µM | 1 | 1.001 | 0.974 | 0.957 | 1.029
0.00152 µM | 0.989 | 1.01 | 0.952 | 0.969 | 1.04
0.00457 µM | 1.02 | 1 | 0.967 | 0.952 | 1.024
0.01372 µM | 1.03 | 1.02 | 0.976 | 0.957 | 1.01
0.04115 µM | 0.987 | 0.997 | 0.983 | 0.961 | 1.01
0.1235 µM | 1.01 | 1.03 | 0.95 | 0.967 | 1.01
0.3704 µM | 0.968 | 1.01 | 0.943 | 0.962 | 1.02
1.111 µM | 0.973 | 1.01 | 1.01 | 0.951 | 1.02
3.333 µM | 0.942 | 0.8795 | 1 | 0.923 | 0.9831
10 µM | 0.643 | 0.609 | 0.596 | 0.61 | 0.807

N#CCC1(n2cc(-c3ncnc4[nH]ccc34)cn2)CN(C2CCN(C(=O)c3ccnc(C(F)(F)F)c3F)CC2)C1 [Itacitinib]
relative viability
Conditions | HT1080 | KHOS-NP | RD | RD-ES | VA-ES-BJ
0.00017 µM | 1.04 | 1.087 | 1.01 | 0.92 | 1.05
0.00051 µM | 1.02 | 1.11 | 1.02 | 0.949 | 1.03
0.00152 µM | 1.04 | 1.09 | 1.02 | 0.919 | 1.02
0.00457 µM | 1.01 | 1.07 | 1.07 | 0.956 | 1.02
0.01372 µM | 1.03 | 1.06 | 1.08 | 0.927 | 1.01
0.04115 µM | 0.991 | 1.048 | 1.05 | 0.913 | 1
0.1235 µM | 1.03 | 1.035 | 1.05 | 0.909 | 0.982
0.3704 µM | 1.004 | 1.01 | 1.03 | 0.909 | 0.97
1.111 µM | 0.993 | 0.991 | 1.04 | 0.924 | 0.972
3.333 µM | 1.02 | 0.942 | 1.04 | 0.887 | 0.942
10 µM | 1 | 0.914 | 1.06 | 0.853 | 0.859

N#Cc1ccnc(N2C(=O)CC[C@H]2C(=O)N(c2cncc(F)c2)[C@H](C(=O)NC2CC(F)(F)C2)c2ccccc2Cl)c1 [Ivosidenib]
relative viability
Conditions | HT1080 | KHOS-NP | RD | RD-ES | VA-ES-BJ
0.00017 µM | 0.987 | 1.05 | 1.04 | 0.948 | 1.03
0.00051 µM | 1.07 | 1.05 | 1.02 | 0.976 | 1.02
0.00152 µM | 1.03 | 1.07 | 1.03 | 1 | 1
0.00457 µM | 1.0513 | 1.07 | 1.05 | 0.977 | 1.03
0.01372 µM | 1.09 | 1.05 | 1.05 | 0.996 | 1.04
0.04115 µM | 1.07 | 1.05 | 1.06 | 0.986 | 1.02
0.1235 µM | 1.11 | 1.06 | 1.07 | 1 | 1.043
0.3704 µM | 1.106 | 1.03 | 1.03 | 1.02 | 1.003
1.111 µM | 1.1 | 1.05 | 1.04 | 0.986 | 1.01
3.333 µM | 1.09 | 1.05 | 1.02 | 0.973 | 1.03
10 µM | 1.05 | 1.06 | 0.944 | 0.9403 | 0.988

COc1cc2nccc(Oc3ccc(NC(=O)NC4CC4)c(Cl)c3)c2cc1C(N)=O [Lenvatinib]
relative viability
Conditions | HT1080 | KHOS-NP | RD | RD-ES | VA-ES-BJ
0.00017 µM | 1.07 | 1.07 | 0.985 | 0.959 | 1.07
0.00051 µM | 1.06 | 1.04 | 0.993 | 0.98 | 1.06
0.00152 µM | 1.08 | 1.05 | 1.04 | 0.959 | 1.08
0.00457 µM | 1.05 | 1.07 | 1.04 | 0.961 | 1.1
0.01372 µM | 1.08 | 1.08 | 1.02 | 0.923 | 1.12
0.04115 µM | 1.06 | 1.08 | 1.02 | 0.942 | 1.11
0.1235 µM | 1.06 | 1.06 | 1.04 | 0.875 | 1.13
0.3704 µM | 1.07 | 1.091 | 1.047 | 0.857 | 1.13
1.111 µM | 1.09 | 1.07 | 1.04 | 0.852 | 1.15
3.333 µM | 1.09 | 1.09 | 1.08 | 0.835 | 1.118
10 µM | 1.12 | 1.08 | 0.984 | 0.815 | 1.04
